Experimental findings from patent US11091786B2, “Butelase-mediated peptide ligation” (Nanyang Technological University, priority 2015, dated 2021) are described below.

What all share (type): cell-based
Assay [1] concerns drug-resistant strains. The protocol:
(§1) The following protocol was applied to the radial diffusion assay.
(§2) 1. A single colony was picked and transferred into a 5 ml tube containing 2.5 ml TSB. The culture was shaken at 37° C. for 18 h.
(§3) 2. 50 μl of the stationary phase culture was diluted to 2.5 mL of autoclaved TSB (1:50 dilution) and shaken at 37° C. for another 3 h.
(§4) 3. This subculture was centrifuged at 5000 rpm for 5 min and the supernatant was discarded. The residual cells were washed with cold sterile 10 mM phosphate buffer, pH 7.4 and the buffer was discarded after centrifuge. 5 ml of the same buffer was added to resuspend the cells and its bacteria concentration was determined by measuring its optical density at 620 nm.
(§5) 4. 10 ml of antoclaved, molten underlay gel agar was transferred to a 15-ml eppendorf tube and mixed with 4×10^6 CFU of bacteria by vortexing. The mixture was then poured into a petri dish and gelled in less than […]. Wells were punched against the gel using a Pasteur pippette.
(§6) 5. Peptides to be tested were serially diluted and 3.5 μl of each sample was added to the well. The plates were incubated at 37° C. for 3 h with gel-side up.
(§7) 6. Next, each underlay gel was covered with 10 ml of overlay gel. After the gel solidified, the plates were turned gel-side up and incubated at 37° C. for overnight.
(§8) 7. The following morning, all the plates were taken out and the zone diameters were measured with ruler. All the samples were tested in duplicates and the results were averaged. The final minimum inhibition concentration (MIC) was determined using excel.
(§9) There is a growing interest to develop peptide-based antibiotics (Annu Rev Immunol. 1995, 13, 61-92; J Intern Med. 2003, 254, 197-215; Cent Eur J Biol 2007, 2, 1-33; Int J Pept Res Ther. 2010, 16, 199-213) because, compared with conventional antibiotics, they are less likely to develop drug resistance and have fewer side effects (J Med Chem. 2015, 58, 6533-6548; Biochemistry-Us. 2000, 39, 7159-7169; Eur J Biochem. 2000, 267, 3289-3300; Nucleic Acids Res. 2012, 40, W199-204). To apply the presently disclosed enzymatic method in preparing dendrimeric antimicrobials, inventors synthesized two antimicrobials 12 (bivalent) and 13 (tetravalent) (MS shown in supporting information) which harbored a tetrapeptide RLYR (SEQ ID NO:121) as the antibacterial sequence (Eur J Biochem. 2002, 269, 923-932) by ligating N-acetylated thiodepsipeptide 10 Ac-RLYRN-thioglc-V (SEQ ID NO:120) with dendron core 2 and 6 respectively. The RLYR (SEQ ID NO:121) tetrapeptide contains a BHHB motif (B=basic, H=hydrophobic) which is commonly found in certain potent and broad-spectrum β-stranded antimicrobial peptides (BioDrugs. 2013, 27, 479-493) such as PG (protegrins) (Febs Lett. 1993, 327, 231-236) and RTD-1 (rhesus monkey theta defensin) (Science. 1999, 286, 498-502). This consensus motif with positive charged and hydrophobic residues was successfully used as a dendrimeric antimicrobial in 2002 (Eur J Biochem. 2002, 269, 923-932). Such short peptide-based dendrimeric antimicrobials are broad-spectrum antibiotics and kill bacterial cells through electrostatic and hydrophobic interactions with the negatively charged microbial cytoplasmic membranes (Biochemistry-Us. 2009, 48, 5642-5657). Using a radial diffusion assay, inventors tested the antimicrobial activities against E. coli and S. aureus of these two dendrimeric peptides together with prototypical monomer 11 RLYR (SEQ ID NO:121), mono-, tri-lysine dendron core 2 and 6 for comparison. All assays were performed under a high-salt condition (100 mM NaCl) to simulate physiological conditions. […] The tetravalent dendrimeric structure 13 had further improved antimicrobial activities with MICs<3 μM against both strains. When testing 13 against several drug-resistant strains under high-salt condition, the tetramer construct was broadly active against all six tested strains with MICs ranging from 0.87 to 4.8 μM. […]

Assay [2] concerns E. coli DM 04604. The following applies: DM 04604, 18 h. Here is the method: as §1, §2, §3, §4, §5, §6, §7, §8, §9
Assay [3] has as its system P. aeruginosa DM 14158. The note with it: DM 14158, 18 h. Here is the method:
as §1, §2, §3, §4, §5, §6, §7, §8, §9

Assay [4] has as its system K. species DR 13779. The note with it: 18 h. Here is the method:
as §1, §2, §3, §4, §5, §6, §7, §8, §9

Assay [5] relates to E. coli DU 09777. The note with it: DU 09777, 18 h. The protocol: as §1, §2, §3, §4, §5, §6, §7, §8, §9
For assay [6], the system named is S. aureus DB 14329. The following applies: DB 14329, 18 h. Here is the method:
as §1, §2, §3, §4, §5, §6, §7, §8, §9

The subject of assay [7] is E. cloacae DM 09800. The following applies: DM 09800, 18 h. Here is the method: as §1, §2, §3, §4, §5, §6, §7, §8, §9

Structures are written as SMILES. Converted amounts (≈) assume the structure as drawn. Bridge positions count the residues as written; N and C are the ends. Square brackets hold non-standard residues; d marks the D form. Peptide text beside a SMILES is read from it. I, II: the chains in the order shown. βAla = NCCC(=O)O

What is called MIC is the lowest concentration that inhibits growth of the organism. A higher MIC goes with weaker potency. For the molecule `CC[C@H](C)[C@H](NC(=O)[C@H](CCCNC(=N)N)NC(=O)[C@H](CC(N)=O)NC(=O)[C@H](CCCNC(=N)N)NC(=O)[C@H](Cc1ccc(O)cc1)NC(=O)[C@H](CC(C)C)NC(=O)[C@H](CCCNC(=N)N)NC(C)=O)C(=O)NCCC(=O)NCCCC[C@H](NC(=O)CCNC(=O)[C@@H](NC(=O)[C@H](CCCNC(=N)N)NC(=O)[C@H](CC(N)=O)NC(=O)[C@H](CCCNC(=N)N)NC(=O)[C@H](Cc1ccc(O)cc1)NC(=O)[C@H](CC(C)C)NC(=O)[C@H](CCCNC(=N)N)NC(C)=O)[C@@H](C)CC)C(=O)NCCCC[C@H](NC(=O)[C@H](CCCCNC(=O)CCNC(=O)[C@@H](NC(=O)[C@H](CCCNC(=N)N)NC(=O)[C@H](CC(N)=O)NC(=O)[C@H](CCCNC(=N)N)NC(=O)[C@H](Cc1ccc(O)cc1)NC(=O)[C@H](CC(C)C)NC(=O)[C@H](CCCNC(=N)N)NC(C)=O)[C@@H](C)CC)NC(=O)CCNC(=O)[C@@H](NC(=O)[C@H](CCCNC(=N)N)NC(=O)[C@H](CC(N)=O)NC(=O)[C@H](CCCNC(=N)N)NC(=O)[C@H](Cc1ccc(O)cc1)NC(=O)[C@H](CC(C)C)NC(=O)[C@H](CCCNC(=N)N)NC(C)=O)[C@@H](C)CC)C(=O)N[C@@H](Cc1ccc(O)cc1)C(N)=O` [Tetramer 13, (Ac-RLYRNRIβA)4K2KY] (I: Ac-RLYRNRI[βAla]KKY-NH2 / II: Ac-RLYRNRI[βAla]K / III: Ac-RLYRNRI[βAla] / IV: Ac-RLYRNRI[βAla]; amide I:9-IV:C, I:10-II:C, II:9-III:C), the “MICs, broad-spectrum” value in assay [1] (all strains tested, including several drug-resistant bacterial strains) was less than 5 µM. Besides, in assay [1] (six drug-resistant strains, high-salt condition), the “MICs against all six tested drug-resistant strains” value was 0.87 to 4.8 µM. Moreover, the minimal inhibitory concentration (MIC) in assay [2] is 4.5 µM (≈ 22.1 µg/mL); in assay [3] it was 2.3 µM (≈ 11.3 µg/mL); in assay [4] it was 1.5 µM (≈ 7.36 µg/mL); in assay [5], 2.2 µM (≈ 10.8 µg/mL); in assay [6], 4.8 µM (≈ 23.5 µg/mL); in assay [7] it was 0.9 µM (≈ 4.42 µg/mL).
